Assay results published in patent US20040091479A1, “T-cell epitope of the papillomavirus l1 and e7 protein and use thereof in diagnostics and therapy” (priority 2000, published 2004).

Columns and labels:
[1] = test system: human T cells; test: Summary of examples 3 to 18: epitopes recognized by human T cells; format: cell-based; conditions: Table 4, HPV18 peptides, species human; MHC restriction
[2] = test system: T cell lines directed against HPV18 E7; test: ELISpot of T cell lines induced with HPV18 E7-loaded dendritic cells; format: cell-based, human; conditions: E7 protein-induced and E7 peptide pool-induced T cell lines; epitope-loaded DC; FIG. 18 top
Method: 1×10^4 stimulator cells (K-A2 cells, that is K-562 cells (ATCC CCL-243) were transfected with an HLA A2 expression vector, PBMC or dendritic cells) were sown, in 60 μl of medium (RPMI 1640, 0.4% human albumin), in one well of a 96-well round-bottomed cell culture plate and loaded overnight with 50 μg of peptide/ml. On the following day, 5×10^4 T cells, in 60 μl of medium (containing 10 U each of IL-2 and IL-7/ml), were added to each well and the plate was incubated for 4 hours. A Millipore nitrocellulose HA plate was coated overnight, at 4° C., with the anti-human IFN-γ monoclonal antibody 1-Dlk (10 μg/ml in PBS, 60 μl/well, Hölzel Diagnostika, Cologne). On the following day, the plate was washed 3 times for in each case 5 min with 150 μl of sterile PBS per well and then blocked with medium for 1 hour at 37° C. The blocking medium was removed and the cells were transferred from the round-bottomed cell culture plate to the filter plate and then incubated for a further 20 to 22 hours. After that, the cells and the medium were removed and the filter plate was washed 6 times for 2 min with PBS/Tween 20 (0.05%). The antibody Ab-7-B6-1-biotin was then added (2 μg/ml in PBS/BSA, 60 μl/well, Hölzel Diagnostika) and the plate was incubated at 4° C. overnight. […] The spots were counted using a ZEISS-VISION (Halbergmoos) ELISpot readout system. […]

[3] = test system: T cell line generated with HeLa CD80/HLA-A2 transfectants (H7.1-A2); test: IFN-γ ELISpot of H7.1-A2-specific T cell line against peptide-loaded autologous PBMC; format: cell-based, human; conditions: H7.1-A2-induced T cell line, FIG. 17 top
[4] = test system: TIL from an HPV18- and HLA-A2-positive patient; test: ELISpot of tumor-infiltrating lymphocytes with peptide-loaded K-A2 cells; format: cell-based, human; conditions: peptide-loaded K-A2 stimulators; FIG. 18 bottom
[5] = test system: autologous peptide-loaded BLCL; test: Cytotoxicity test (chromium release assay) of HPV18 E786-94-specific T cells; format: cell-based, human; conditions: effector to target ratio of 30:1, FIG. 17 bottom
Method: The predicted peptides were synthesized using standard methods (F moc method). […] For this, 1×10^5 PBMC derived from healthy, HLA-A2-positive donors were sown, in 100 μl of medium (RPMI 1640, 10% heat-inactivated AB plasma), in each well of a 96-well plate. 20 μg of peptide/ml were added to the culture medium. The cells were incubated at 37° C. and restimulated once per week with irradiated peptide-loaded autologous PBMC. The stimulator PBMC were incubated for 4 hours in medium containing 20 μg of peptide/ml. After the irradiation, they were diluted down to 1×10^4/100 μl with medium and added to the peptide-stimulated PBMC. For this, half the medium was aspirated from each well and 100 μl of the stimulator PBMC suspension were added. 10 U of IL-2/ml and 10 U of IL-7/ml were added from the 3rd stimulation onwards. From the 5th stimulation onwards, restimulation was carried out in the same manner using peptide-loaded autologous B lymphoblast cell lines (BLCL).
The cytotoxicity of HPV18 E786-94-specific T cells was determined in a chromium release assay. Autologous BLCL were used as the target cells. In each case, 5×10^5 cells were taken up in 100 μl of medium (RPMI 1640, 10% FCS) and treated with 20 μl of ^51chromium (NEN). For loading the BLCL with peptide, 50 μg of the corresponding peptide were added/ml. After that, the cells were incubated at room temperature for 2 hours while being carefully resuspended every 20-30 min. The cells were then washed 3 times with 5 ml of medium. For the sedimenting, the cells were in each case centrifuged at 1500 rpm for 5 min and then carefully resuspended. […]
The assay samples were incubated for 4 hours at 37° C., 98% atmospheric humidity and 5% CO2. […] On the following day, 150 μl of Microscint 40 scintillation fluid (Canberra-Packard, Deieich) were added and the numbers of distintegrations per minute in the individual assay samples were measured in the scintillation counter (Topcount, Canberra-Packard, Dreieich).
The specific lysis was calculated using the following formula: […]

FQQLFLNTL [HPV18 E786-94, HPV18 E7 86-94]
Haplotype [1]: HLA-A2 | epitope-specific T cells in ELISpot assay [2]: detected in both T cell lines | IFN-γ ELISpot reaction [3]: specific reaction | ELISpot reaction of TIL populations [4]: marked reaction | specific lysis [5]: approx. 20%
